Measurements as given in paper PMC6025358 (Marine Drugs, 2018).

Molecular target: rat α3β4 nAChR (Rattus norvegicus, UniProt P04757+P12392)
Assay: cell-based
Conditions: for inhibition at 0.1 µM / inhibition at 1 µM: read-out: Inhibition of ACh-evoked α3β4 nAChR-mediated current

Sequence of rat α3β4 nAChR (P04757 26-499 limits assumed): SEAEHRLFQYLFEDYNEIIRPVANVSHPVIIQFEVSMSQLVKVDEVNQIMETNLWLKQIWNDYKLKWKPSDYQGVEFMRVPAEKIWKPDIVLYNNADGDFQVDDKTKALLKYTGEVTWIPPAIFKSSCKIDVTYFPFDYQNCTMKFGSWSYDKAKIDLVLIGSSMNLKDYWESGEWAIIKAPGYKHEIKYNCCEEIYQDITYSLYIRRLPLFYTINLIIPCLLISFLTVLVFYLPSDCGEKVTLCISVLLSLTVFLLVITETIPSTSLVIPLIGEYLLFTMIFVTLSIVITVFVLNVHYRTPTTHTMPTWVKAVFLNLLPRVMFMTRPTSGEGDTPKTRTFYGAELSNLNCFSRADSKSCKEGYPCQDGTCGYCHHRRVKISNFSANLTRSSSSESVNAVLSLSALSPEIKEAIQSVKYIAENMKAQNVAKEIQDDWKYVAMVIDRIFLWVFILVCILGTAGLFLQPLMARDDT
Sequence of rat α3β4 nAChR (P12392 21-495 limits assumed): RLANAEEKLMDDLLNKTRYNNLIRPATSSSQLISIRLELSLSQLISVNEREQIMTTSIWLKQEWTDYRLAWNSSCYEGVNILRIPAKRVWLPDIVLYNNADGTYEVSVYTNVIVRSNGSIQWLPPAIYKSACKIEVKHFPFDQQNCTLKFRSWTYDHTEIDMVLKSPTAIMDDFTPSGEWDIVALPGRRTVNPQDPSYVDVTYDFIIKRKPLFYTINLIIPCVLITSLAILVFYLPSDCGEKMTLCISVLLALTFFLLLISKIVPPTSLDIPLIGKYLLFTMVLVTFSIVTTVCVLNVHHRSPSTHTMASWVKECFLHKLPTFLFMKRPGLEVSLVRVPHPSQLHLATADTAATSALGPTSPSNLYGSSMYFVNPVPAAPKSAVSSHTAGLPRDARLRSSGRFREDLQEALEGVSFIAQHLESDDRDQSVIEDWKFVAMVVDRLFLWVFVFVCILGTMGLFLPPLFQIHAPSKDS

Row | SMILES | inhibition at 0.1 µM | inhibition at 1 µM | IC50
1 | CC[C@H](C)[C@@H]1NC(=O)[C@@H]2CCCN2C(=O)[C@H](CO)NC(=O)[C@H](CCSC)NC(=O)[C@H](C)NC(=O)[C@H](CO)NC(=O)[C@@H]2CSSC[C@H](NC(=O)CN)C(=O)N[C@@H](CSSC[C@@H](C(N)=O)NC1=O)C(=O)N[C@@H](CO)C(=O)N[C@@H](Cc1c[nH]cn1)C(=O)N1CCC[C@H]1C(=O)N[C@@H](C(C)C)C(=O)N2 [TxID] | ~80% | ~100% | 
2 | CC[C@H](C)[C@@H]1NC(=O)[C@@H]2CCCN2C(=O)[C@H](CO)NC(=O)[C@H](CC[S+](C)[O-])NC(=O)[C@H](C)NC(=O)[C@H](CO)NC(=O)[C@@H]2CSSC[C@H](NC(=O)CN)C(=O)N[C@@H](CSSC[C@@H](C(N)=O)NC1=O)C(=O)N[C@@H](CO)C(=O)N[C@@H](Cc1c[nH]cn1)C(=O)N1CCC[C@H]1C(=O)N[C@@H](C(C)C)C(=O)N2 (some centres unmarked) [[MO]TxID] | 25% | 72% | 0.245 µM
